“Also recorded” adds a separate entry of the source.
Experiments:
[1] = tested on: subjects having Fitzpatrick Skin Types I-IV; details: split-face: Retinoic Acid 0.3% right side vs Retinol 2% left side; 7-day; FIG. 1
[2] = tested on: subjects with mild to moderate photodamage; test: Study 3: Retinol 3% (oil-free) vs. RA 0.3%, split-face single-blind clinical study, series of three peel procedures
[3] = FIG. 8, post-peel #3, blinded photograph evaluation by an expert physician

For CC1=C(/C=C/C(C)=C/C=C/C(C)=C/C(=O)O)C(C)(C)CCC1 [Retinoic Acid], the “stinging/burning and tightness (investigator and subject assessments)” value [1] was “more”, the “subjects preferred treated side, post-peel #1 subject assessment” value ([2]; FIG. 5) was 10 % of subjects and the “subjects preferred treated side, post-peel #2 subject assessment” value ([2]; FIG. 6) was 10 % of subjects. For the same compound, the “subjects preferred treated side, post-peel #3 subject assessment” value ([2]; FIG. 7) was 0 % of subjects.
For CC1=C(/C=C/C(C)=C/C=C/C(C)=C/CO)C(C)(C)CCC1 [retinol, (2E,4E,6E,8E)-3,7-dimethyl-9-(2,6,6-trimethylcyclohex-1-enyl)nona-2,4,6,8-tetraen-1-ol], the “investigator noticed no difference between the sides” value ([2]; FIG. 4, Retinol 3% (oil-free) vs Retinoic Acid 0.3%) was 95 % of subjects, the “subjects felt no difference between the sides, post-peel #1” value ([2]; FIG. 5, Retinol 3% (oil-free) vs Retinoic Acid 0.3%) was 75 % of subjects and the “subjects preferred treated side, post-peel #1 subject assessment” value ([2]; FIG. 5) was 15 % of subjects. The “subjects felt no difference between the sides, post-peel #2” value ([2]; FIG. 6, Retinol 3% (oil-free) vs Retinoic Acid 0.3%) was 85 % of subjects, the “subjects preferred treated side, post-peel #2 subject assessment” value ([2]; FIG. 6) was 5 % of subjects and the “subjects felt no difference between the sides, post-peel #3” value ([2]; FIG. 7, Retinol 3% (oil-free) vs Retinoic Acid 0.3%) was 95 % of subjects. The “subjects preferred treated side, post-peel #3 subject assessment” value ([2]; FIG. 7) was 5 % of subjects, the “improvement in fine lines and wrinkles compared to retinoic acid” value [2, 3] was “about twice as much improvement; also recorded: superior efficacy” and the “improvement in photodamage compared to retinoic acid” value [2, 3] was “about twice as much improvement; also recorded: superior efficacy”. The “improvement in unevenness of skin tone compared to retinoic acid” value [2, 3] was “about twice as much improvement; also recorded: superior efficacy”, the “subjects demonstrating a difference favoring the treated side” value ([2]; end of treatment, one subject) was 5% and the “adverse reaction on treated side” value ([2]; one subject, treated with topical hydrocortisone for 3 days, resolved, no reaction on re-challenge) was “irritation (rash, redness)”.

Reference: US20200276094A1, “COMPOSITIONS FOR SKIN EXPOLIATION AND USE THEREOF” (Allergan, Inc., priority 2011, published 2020)
